Where a chain is given by its changes, count along the chain named. Calls of active or inactive are those of the source. The rule behind the calls is not given here.
Columns and labels:
[1] = tested on: T1, General amino-acid permease GAP1 (Saccharomyces cerevisiae), P19145 [T400C]; assay: Activation of yeast Gap1 T400C mutant-mediated amino acid uptake at 10 mM
T1 sequence (whole entry): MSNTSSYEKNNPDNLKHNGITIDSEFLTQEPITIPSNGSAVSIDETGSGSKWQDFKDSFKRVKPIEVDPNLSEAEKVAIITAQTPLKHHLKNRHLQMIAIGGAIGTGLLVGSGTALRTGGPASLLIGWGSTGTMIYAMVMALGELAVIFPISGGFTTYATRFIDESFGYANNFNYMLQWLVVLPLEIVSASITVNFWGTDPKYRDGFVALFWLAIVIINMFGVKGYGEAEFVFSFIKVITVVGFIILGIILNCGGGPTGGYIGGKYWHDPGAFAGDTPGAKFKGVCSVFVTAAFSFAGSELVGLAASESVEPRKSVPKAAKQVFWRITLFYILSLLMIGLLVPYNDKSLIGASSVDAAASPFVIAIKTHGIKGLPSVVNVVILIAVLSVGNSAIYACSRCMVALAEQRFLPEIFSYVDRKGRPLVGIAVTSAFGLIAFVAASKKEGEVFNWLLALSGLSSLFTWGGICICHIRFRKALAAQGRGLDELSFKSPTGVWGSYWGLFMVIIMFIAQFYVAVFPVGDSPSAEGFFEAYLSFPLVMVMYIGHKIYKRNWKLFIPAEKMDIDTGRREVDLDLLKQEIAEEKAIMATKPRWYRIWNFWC

[2] = tested on: T2, General amino-acid permease GAP1 (Saccharomyces cerevisiae), P19145 [M401C]; assay: Induction of yeast Gap1 M401C mutant-mediated trehalose activation at 10 mM
T2 sequence (whole entry): T1 sequence (whole entry) with C400T, M401C

[3] = tested on: T3, General amino-acid permease GAP1 (Saccharomyces cerevisiae), P19145 [S398C]; assay: Induction of yeast Gap1 S398C mutant-mediated trehalose activation at 2 mM in presence of 10 mM MTSEA treated before compound addition
T3 sequence (whole entry): T1 sequence (whole entry) with S398C, C400T

[4] = tested on: T4, General amino-acid permease GAP1 (Saccharomyces cerevisiae), P19145 [A405C]; assay: Induction of yeast Gap1 A405C mutant-mediated […] activation at 2 mM in presence of 10 mM MTSEA treated before compound addition
T4 sequence (whole entry): T1 sequence (whole entry) with C400T, A405C

[5] = tested on: T3, General amino-acid permease GAP1 (Saccharomyces cerevisiae), P19145 [S398C]; assay: Induction of yeast Gap1 S398C mutant-mediated amino acid uptake at 2 mM in presence of 10 mM MTSEA treated before compound addition

**Q.** With `NC(=O)NCCC[C@H](N)C(=O)O` as the compound, how does the Activity [1] read?
**A.** Its Activity is “inactive”.

**Q.** What about the Activity [2] of the same compound?
**A.** The Activity was “inactive”.

**Q.** And the inhibition [3]?
**A.** The inhibition was “Active”.

**Q.** And the inhibition [4]?
**A.** Its inhibition is “Active”.

**Q.** What about the Activity [5] of the same compound?
**A.** The Activity was “Active”.
